Series [1] has as its system mPA6115-luc tumour cells. The experiment in a line: orthotopic mPA6115-luc mouse model of pancreatic cancer. It is filed as in vivo. Conditions: 10 mg/kg BID oral gavage, female C57BL/6 mice, FIG. 2.
Method: This model is constituted by the implantation of mPA6115-luc cells originating from a spontaneous developed donor tumour in KPC mice into the pancreas of female wildtype C57BL/6 recipient mice.
Each mouse was inoculated into the subcapsular region of the pancreas with mPA6115-luc tumour cells (1×10^6) in 50 uL PBS with Matrigel (1:1). The date of tumour cell inoculation was denoted as day 0.
The randomization started 4 days after tumour cell inoculation based on the total flux (p/s, minimum flux>1E^6). 10 mice per group were assigned to treatment by BID oral gavage with vehicle (1% methylcellulose) or Compound 1 (10 mg/kg in 1% methylcellulose). Tumour growth and metastasis were imaged twice per week by bioluminescent imaging.
For series [2], the system named is PANC-1 tumour cells. Put plainly: subcutaneous PANC-1 xenograft mouse model of pancreatic cancer. Format: in vivo. Conditions: BALB/c Nude mice, subcutaneous PANC-1, FIG. 3. On the procedure:
The therapeutic efficacy of Compound 1 was evaluated in the subcutaneous PANC-1 mouse model of pancreatic cancer.
BALB/c Nude mice were inoculated subcutaneously in the right front flank region with PANC-1 tumour cells (5×10^6) in 0.1 ml of PBS. The date of tumour cell inoculation was denoted as day 0. The randomization started when the mean tumour size>100 mm^3. 10 mice were enrolled per study group. Tumour growth and body weights were measured twice per week.

Series [3] relates to PANC-1 tumour cells. Conditions: for tumour growth inhibition: BALB/C nude mice, tumour weight at day 42. On the procedure: The therapeutic efficacy of Compound 1 with or without gemcitabine was evaluated in the orthotopic PANC-1 mouse model of pancreatic cancer. This model is constituted by the implantation of PANC-1 tumor cells into the pancreas […] in BALB/C nude mice.
Each mouse was inoculated into the subcapsular region of the pancreas with PANC-1 tumour cells (3×10^6) in 50 uL PBS with Matrigel (1:1). The date of tumour cell inoculation was denoted as day 0. Randomization started 10 days after tumour cell inoculation based on body weight. 10 mice per group were assigned to treatment by oral gavage with vehicle (1% methylcellulose, BID), gemcitabine (25 mg/kg, Q4D), Compound 1 (10 mg/kg, BID), or Compound 1 (10 mg/kg, BID) and gemcitabine (25 mg/kg, Q4D). Tumor sizes were measured by weight after termination at day 42.

Series [4] has as its system RC416 tumour cells. The experiment in a line: orthotopic RC416 mouse model of pancreatic cancer (survival). It is filed as in vivo. Conditions: Compound 1 10 mg/kg BID p.o., galunisertib 50 mg/kg BID p.o., gemcitabine 75 mg/kg QW i.p.; max 28 days treatment; FIG. 5. From the text: This model is constituted by the implantation of RC416 cells originating from a spontaneous developed donor tumour in KPC mice into the pancreas of female wildtype C57BL/6 recipient mice. The pathology and tumour microenvironment in this model closely resemble human pancreatic cancer and is characterized by high circulating ATX and TGF-β.
The day of tumour cell inoculation was denoted as day 0. Randomization started 7 days after tumor cell inoculation, based on body weight. 5 mice per group were assigned to treatment, with vehicle (1% methylcellulose, BID p.o.), Compound 1 (10 mg/kg, BID p.o.), galunisertib (50 mg/kg, BID p.o.), gemcitabine (75 mg/kg, QW i.p.), or the combinations of Compound 1 plus gemcitabine, Compound 1 plus galunisertib and gemcitabine, and galunisertib plus gemcitabine, Mice were treated for a maximum of 28 days and anti-tumour activity was measured by survival.

The test system of series [5] is pancreatic cancer. Conditions: pancreatic cancer patients, standard treatment; cited from earlier work.
Setting [6] is: Compound 1 10 mg/kg BID, gemcitabine 25 mg/kg Q4D.

The values below come from patent publication US20250057820A1, “AUTOTAXIN (ATX) INHIBITOR FOR THE TREATMENT OF PANCREATIC CANCER” (priority 2021, published 2025).

Molecules are shown by their SMILES.

Turning to `C[C@H](NC(=O)CCc1nc2cccnc2n1Cc1ccc(OC(F)(F)F)cc1)c1ccc(Cl)cc1` [Compound 1, N—[(S)-1-(4-chloro-phenyl)-ethyl]-3-[3-(4-trifluoromethoxy-benzyl)-3H-imidazo[4,5-b]pyridin-2-yl]-propionamide], in series [1], the “tumour outgrowth based on total bioluminescence” value is “significantly reduced tumour outgrowth”. In addition, the tumour outgrowth result in series [2] is recorded as “reduced tumour outgrowth”. The same compound registered a tumour growth inhibition in series [3] (setting [6]) of 5%.

`Nc1ccn([C@@H]2O[C@H](CO)[C@@H](O)C2(F)F)c(=O)n1` [gemcitabine]: the “mice died or sacrificed for reaching humane endpoints (mortality)” value in series [3] (10 mice per group, Compound 1 10 mg/kg BID, gemcitabine 25 mg/kg Q4D) was determined as 5 mice. In series [3] (setting [6]), this compound had a tumour growth inhibition of 41%. Besides, in series [3] (BALB/C nude, mouse, in vivo, 42 day), the “Number of Mice on Day 42” value worked out at 5. In addition, the “Pancreas Size (mg) on Day 42” value in series [3] (Day 42) is recorded as 549 + 44 mg. Besides, the survival result in series [4] is on record as “limited survival benefit”. In series [5], the “average median overall survival” value is 6 months and the response rate was 5-10%.
